Measurements reported in ChEMBL document CHEMBL5385853, “Design, synthesis, and biological evaluation of novel quinoline derivatives as small molecule mutant EGFR inhibitors targeting resistance in NSCLC: In vitro screening and ADME predictions” (Eur J Med Chem, 2023).
pIC50: −log10 of the molar value. Active and inactive are the calls of the source. The calls are words filed in the database; no cut-off is given here.

Columns and labels:
A549 [1] = test: Anticancer activity against human A549 cells assessed as reduction in cell viability measured after 72 hrs by MTT assay; type: functional, cell-based; settings: A549, 72 h
A549 [2] = test: Anticancer activity against human A549 cells overexpressing wild type EGFR assessed as reduction in cell viability measured after 72 hrs by MTT assay; type: functional, cell-based; settings: A549, 72 h
NCI-H1975 = test: Anticancer activity against human NCI-H1975 cells harboring EGFR L858R/T790M mutant assessed as reduction in cell viability measured after 72 hrs by MTT assay; type: functional, cell-based; settings: NCI-H1975, 72 h
HCC827 = test: Anticancer activity against human HCC827 cells harboring EGFR E746_A750 del mutant assessed as reduction in cell viability measured after 72 hrs by MTT assay; type: functional, cell-based; settings: HCC827, 72 h
[3] = molecular target: Epidermal growth factor receptor (Homo sapiens, UniProt P00533, L858R/T790M); test: Inhibition of EGFR L858R/T790M mutant (unknown origin) using poly (Glu,Tyr) as substrate incubated for 40 mins in presence of ATP by Kinase-Glo luminescent analysis
Chain of Epidermal growth factor receptor (Homo sapiens, UniProt P00533, L858R/T790M) (P00533 25-1210 T790M/L858R limits assumed): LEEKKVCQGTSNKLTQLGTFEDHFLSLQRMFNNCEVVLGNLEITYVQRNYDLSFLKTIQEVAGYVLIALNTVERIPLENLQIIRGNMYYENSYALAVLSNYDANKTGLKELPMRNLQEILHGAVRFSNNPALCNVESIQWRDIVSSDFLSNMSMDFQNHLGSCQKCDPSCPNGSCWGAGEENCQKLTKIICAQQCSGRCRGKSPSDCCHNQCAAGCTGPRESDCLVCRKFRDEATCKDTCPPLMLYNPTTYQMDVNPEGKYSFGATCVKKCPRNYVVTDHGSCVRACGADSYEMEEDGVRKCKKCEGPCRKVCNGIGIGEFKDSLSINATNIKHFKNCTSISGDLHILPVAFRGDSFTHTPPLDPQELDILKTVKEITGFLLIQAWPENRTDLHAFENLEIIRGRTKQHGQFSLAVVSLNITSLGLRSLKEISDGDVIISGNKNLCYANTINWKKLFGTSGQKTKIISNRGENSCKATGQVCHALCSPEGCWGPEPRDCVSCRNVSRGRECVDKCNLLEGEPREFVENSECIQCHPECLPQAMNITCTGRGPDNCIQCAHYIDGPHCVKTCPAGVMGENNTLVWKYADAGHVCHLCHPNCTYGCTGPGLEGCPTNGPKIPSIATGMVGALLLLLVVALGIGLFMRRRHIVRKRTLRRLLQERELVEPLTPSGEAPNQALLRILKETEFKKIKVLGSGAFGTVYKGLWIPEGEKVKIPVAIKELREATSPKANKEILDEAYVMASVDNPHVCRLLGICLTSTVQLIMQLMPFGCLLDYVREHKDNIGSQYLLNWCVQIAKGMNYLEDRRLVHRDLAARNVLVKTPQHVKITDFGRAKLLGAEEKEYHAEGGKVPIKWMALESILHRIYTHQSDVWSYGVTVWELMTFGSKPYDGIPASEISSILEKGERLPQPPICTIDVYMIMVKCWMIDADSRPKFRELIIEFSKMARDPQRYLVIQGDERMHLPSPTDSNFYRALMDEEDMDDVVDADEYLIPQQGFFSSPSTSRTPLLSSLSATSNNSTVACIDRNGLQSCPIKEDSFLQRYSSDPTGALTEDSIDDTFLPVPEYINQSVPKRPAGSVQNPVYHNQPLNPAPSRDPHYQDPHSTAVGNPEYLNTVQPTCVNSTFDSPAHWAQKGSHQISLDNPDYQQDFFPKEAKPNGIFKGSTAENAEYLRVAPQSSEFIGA

[4] = Cytotoxicity against human BEAS-2B cells assessed as reduction in cell viability measured after 72 hrs by MTT assay; type: toxicity, cell-based
[5] = system: Epidermal growth factor receptor (Homo sapiens), P00533 [UNDEFINED MUTATION]; test: Inhibition of EGFR E746_A750 del mutant in human HCC827 cells assessed as inhibition of Akt phosphorylation at 0.01 to 1 uM by western blot analysis; type: cell-based; settings: dose 0.01-1 µM
Chain of Epidermal growth factor receptor (Homo sapiens), P00533 [UNDEFINED MUTATION] (P00533 whole entry, looked up, stated change not applied): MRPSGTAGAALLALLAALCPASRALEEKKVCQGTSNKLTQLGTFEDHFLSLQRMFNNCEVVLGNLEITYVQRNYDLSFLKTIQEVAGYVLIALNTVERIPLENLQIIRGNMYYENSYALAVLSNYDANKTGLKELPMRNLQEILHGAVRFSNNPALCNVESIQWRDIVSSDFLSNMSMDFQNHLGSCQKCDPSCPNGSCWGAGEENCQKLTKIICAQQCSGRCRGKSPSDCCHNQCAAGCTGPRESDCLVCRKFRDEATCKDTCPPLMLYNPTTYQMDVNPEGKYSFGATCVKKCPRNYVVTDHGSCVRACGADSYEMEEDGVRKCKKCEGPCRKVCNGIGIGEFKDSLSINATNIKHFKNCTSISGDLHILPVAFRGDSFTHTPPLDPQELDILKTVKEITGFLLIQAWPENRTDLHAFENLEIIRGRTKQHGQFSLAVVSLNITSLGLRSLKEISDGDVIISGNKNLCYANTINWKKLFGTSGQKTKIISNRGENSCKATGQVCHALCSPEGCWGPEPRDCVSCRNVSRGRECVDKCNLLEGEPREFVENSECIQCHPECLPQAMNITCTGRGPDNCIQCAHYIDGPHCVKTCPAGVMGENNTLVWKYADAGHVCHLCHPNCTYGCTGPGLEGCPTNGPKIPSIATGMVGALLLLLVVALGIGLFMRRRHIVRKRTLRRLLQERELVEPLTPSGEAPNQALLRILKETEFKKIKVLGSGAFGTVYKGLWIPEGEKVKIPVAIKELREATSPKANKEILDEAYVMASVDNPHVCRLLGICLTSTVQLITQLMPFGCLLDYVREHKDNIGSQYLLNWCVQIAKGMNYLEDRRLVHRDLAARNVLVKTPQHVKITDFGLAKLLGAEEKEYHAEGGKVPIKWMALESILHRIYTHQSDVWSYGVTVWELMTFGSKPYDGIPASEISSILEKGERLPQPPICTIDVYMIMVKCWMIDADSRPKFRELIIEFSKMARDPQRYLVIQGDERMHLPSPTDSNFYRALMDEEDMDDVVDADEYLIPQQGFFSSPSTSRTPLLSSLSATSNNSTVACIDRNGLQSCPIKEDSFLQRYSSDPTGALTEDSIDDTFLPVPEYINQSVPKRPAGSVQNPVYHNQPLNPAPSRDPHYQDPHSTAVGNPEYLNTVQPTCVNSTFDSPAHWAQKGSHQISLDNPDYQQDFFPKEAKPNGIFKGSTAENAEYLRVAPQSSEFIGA

[6] = molecular target: Epidermal growth factor receptor (Homo sapiens, UniProt P00533); test: Inhibition of EGFR (unknown origin)
Chain of Epidermal growth factor receptor (Homo sapiens, UniProt P00533) (P00533 whole entry): as the sequence (P00533 whole entry, looked up, stated change not applied) above

NSCLC [7] = test: Induction of apoptosis in human NSCLC assessed as late apoptotic cells at IC50 measured after 24 to 48 hrs by AnnexinV-FITC/PI staining based flow cytometry (reference value: 1.1%); type: functional; settings: time 24-48 hrs
NSCLC [8] = test: Induction of apoptosis in human NSCLC assessed as early apoptotic cells at IC50 measured after 24 to 48 hrs by AnnexinV-FITC/PI staining based flow cytometry (reference value: 2.1%); type: functional; settings: time 24-48 hrs

| pIC50 (A549 [1]) | pIC50 (A549 [2]) | pIC50 (NCI-H1975) | pIC50 (HCC827) | pIC50 [3] | inhibition [5] | pIC50 [6] | Structure (SMILES) | IC50 at 72 h [4] [µM] | Activity (NSCLC [7]) [%] | Activity (NSCLC [8]) [%] |
| --- | --- | --- | --- | --- | --- | --- | --- | --- | --- | --- |
| 5.04 | 5.22 | 5.37 | 6.42 | – | – | – | CCOC(=O)c1c(-n2ccnc2)nc2ccc(Br)cc2c1N1CCN(c2ccccc2NS(=O)(=O)c2cccc(C#N)c2)CC1 | – | – | – |
| 5.15 | 5.32 | 5.57 | 6.74 | – | – | – | CCOC(=O)c1c(-n2ccnc2)nc2ccc(Br)cc2c1N1CCN(c2ccccc2NC(=O)c2cc(F)ccc2Br)CC1 | – | – | – |
| 5.00 | 5.22 | 5.35 | 6.55 | – | – | – | CCOC(=O)c1c(-n2ccnc2)nc2ccc(Br)cc2c1N1CCN(c2ccccc2[N+](=O)[O-])CC1 | – | – | – |
| 4.96 | 5.10 | 6.96 | 7.00 | – | – | – | CCOC(=O)c1c(-n2ccnc2)nc2ccc(Br)cc2c1N1CCN(c2ccccc2NC(=O)C2CC(=O)C2)CC1 | – | – | – |
| 5.04 | 5.24 | 5.39 | 6.48 | – | – | – | CCOC(=O)c1c(-n2ccnc2)nc2ccc(Br)cc2c1N1CCN(c2ccccc2NS(=O)(=O)c2ccc(C#N)cc2)CC1 | – | – | – |
| 5.08 | 5.25 | 5.54 | 6.66 | – | – | – | CCOC(=O)c1c(-n2ccnc2)nc2ccc(Br)cc2c1N1CCN(c2ccccc2NS(=O)(=O)c2ccc(Cl)cc2)CC1 | – | – | – |
| 5.37 | 5.73 | 6.09 | 7.21 | 6.82 | – | – | CCOC(=O)c1c(-n2ccnc2)nc2ccc(Br)cc2c1N1CCN(c2ccccc2NS(=O)(=O)c2ccc(F)cc2)CC1 | 86.5 | – | – |
| 5.31 | 5.62 | 6.07 | 7.30 | 6.84 | inactive | – | CCOC(=O)c1c(-n2ccnc2)nc2ccc(Br)cc2c1N1CCN(c2ccccc2NS(=O)(=O)c2ccccc2F)CC1 | – | – | – |
| 4.79 | 4.94 | 4.82 | 5.61 | – | – | – | CCOC(=O)c1c(-n2ccnc2)nc2ccc(Br)cc2c1N1CCNCC1 | – | – | – |
| 5.04 | 5.25 | 5.54 | 6.54 | – | – | – | CCOC(=O)c1c(-n2ccnc2)nc2ccc(Br)cc2c1N1CCN(c2ccccc2NS(=O)(=O)c2ccc(I)cc2)CC1 | – | – | – |
| 4.96 | 5.11 | 5.15 | 6.17 | – | – | – | CCOC(=O)c1c(-n2ccnc2)nc2ccc(Br)cc2c1N1CCN(c2ccccc2NS(=O)(=O)C2CC2)CC1 | – | – | – |
| – | – | – | – | – | – | 8.12 | COc1cc2ncc(C#N)c(Nc3cccc(Br)c3)c2cc1OC | – | – | – |
| 4.78 | 4.94 | 4.88 | 6.01 | – | – | – | CCOC(=O)c1c(-n2ccnc2)nc2ccc(Br)cc2c1N1CCN(c2ccccc2N)CC1 | – | – | – |
| 5.07 | 5.31 | 5.55 | 6.80 | – | – | – | CCOC(=O)c1c(-n2ccnc2)nc2ccc(Br)cc2c1N1CCN(c2ccccc2NC(=O)c2cccc(Br)c2)CC1 | – | – | – |
| 4.95 | 5.06 | 5.21 | 6.28 | – | – | – | CCOC(=O)c1c(-n2ccnc2)nc2ccc(Br)cc2c1N1CCN(c2ccccc2NC(=O)c2cccc(OC)c2OC)CC1 | – | – | – |
| 4.85 | 4.92 | 4.80 | 5.68 | – | – | – | CCOC(=O)c1c(-n2ccnc2)nc2ccc(Br)cc2c1N1CCN(C(=O)OC(C)(C)C)CC1 | – | – | – |
| 5.16 | 5.37 | 5.66 | 6.96 | – | – | – | CCOC(=O)c1c(-n2ccnc2)nc2ccc(Br)cc2c1N1CCN(c2ccccc2NC(=O)c2cc(F)ccc2I)CC1 | – | – | – |
| – | – | – | – | – | – | 6.31 | N#Cc1c(-c2ccc3ncc(C(N)=O)c(Nc4cccc(Br)c4)c3c2)csc1N | – | – | – |
| 4.94 | 5.09 | 5.03 | 6.06 | – | – | – | CCCc1cc(C(=O)Nc2ccccc2N2CCN(c3c(C(=O)OCC)c(-n4ccnc4)nc4ccc(Br)cc34)CC2)n(C)n1 | – | – | – |
| 5.09 | 5.30 | 5.54 | 6.66 | – | – | – | CCOC(=O)c1c(-n2ccnc2)nc2ccc(Br)cc2c1N1CCN(c2ccccc2NS(=O)(=O)c2ccc(Br)cc2)CC1 | – | – | – |
| 5.08 | 5.31 | 5.55 | 6.77 | – | – | – | CCOC(=O)c1c(-n2ccnc2)nc2ccc(Br)cc2c1N1CCN(c2ccccc2NC(=O)c2ccccc2F)CC1 | – | – | – |
| 4.84 | 4.99 | 4.96 | 6.05 | – | – | – | CCOC(=O)c1c(-n2ccnc2)nc2ccc(Br)cc2c1N1CCN(c2ccccc2NS(=O)(=O)c2ccc(S(C)(=O)=O)cc2)CC1 | – | – | – |
| 5.51 | 5.96 | 6.11 | 7.00 | 6.80 | – | – | CCOC(=O)c1c(-n2ccnc2)nc2ccc(Br)cc2c1N1CCN(c2ccccc2NS(=O)(=O)c2ccc(F)c(F)c2)CC1 | 45.8 | – | – |
| 5.52 | 6.00 | 6.68 | 8.00 | 6.86 | inactive | – | CCOC(=O)c1c(-n2ccnc2)nc2ccc(Br)cc2c1N1CCN(c2ccccc2NS(=O)(=O)c2ccc(C(F)(F)F)cc2)CC1 | 85.1 | 4.2 | 26.8 |
| 4.82 | 4.96 | 4.93 | 6.02 | – | – | – | CCOC(=O)c1c(-n2ccnc2)nc2ccc(Br)cc2c1N1CCN(c2ccccc2NS(=O)(=O)c2ccc(C(C)(C)C)cc2)CC1 | – | – | – |
| 4.99 | 5.21 | 5.32 | 6.42 | – | – | – | CCOC(=O)c1c(-n2ccnc2)nc2ccc(Br)cc2c1N1CCN(c2ccccc2NS(=O)(=O)c2ccc(OC)cc2)CC1 | – | – | – |

| Structure (SMILES) | pIC50 (A549 [1]) | pIC50 (A549 [2]) | pIC50 (NCI-H1975) | pIC50 (HCC827) | pIC50 [3] | inhibition [5] | pIC50 [6] | IC50 at 72 h [4] [µM] | Activity (NSCLC [7]) [%] | Activity (NSCLC [8]) [%] |
| --- | --- | --- | --- | --- | --- | --- | --- | --- | --- | --- |
| C=CC(=O)Nc1cc(Nc2nccc(-c3cn(C)c4ccccc34)n2)c(OC)cc1N(C)CCN(C)C [OSIMERTINIB] | 5.57 | […] | […] | 8.40 | – | – | – | – | – | – |
